Experimental data taken from patent US20090068126A1, “Composition for surface photoprotection” (priority 2004, published 2009).

Experiments:
[1] = tested on: short hair line albino Guinea pigs; experiment: Phototoxicity in vivo; design: species or system guinea pig; settings: 0.1 g %, only in the irradiated area
Protocol: The tests are accomplished in short hair line albino Guinea pigs (n=4). Twenty-four hours before the application of the test substance to 5% [tween/ethanol/water (1:1:10)], the animals dorsal portion hair are chemically removed. Four application sites are chosen, at random: 2 areas for the test substance and other 2 for the methoxypsoralen phototoxic standard at 0.1 g %, following by the UVA radiation exposition, and a control area is protected from the light. After 24 and 48 hours, the observations are made as for the erythema edema formation (AGÊNCIA NACIONAL DE VIGILÂNCIA SANITÁRIA-Brazil, Guia para avaliaçãa de segurança de produtos cosméticos. 2003.; Freitas, Z. M. F., I Ax, P. A., Dellamora-Ortiz, G. M., Santos, E. P., Gonçalves, J. C. S., 2000, S.T.P Pharma Sciences, 10 (3) 239-242; Dinardo, J. C., Wolf, B. A., Morris, W. E., Tenenbaum, S., Schnetzinger, R. W., 1985, J. Soc. Cosmet. Chem., 36, 425-433).

[2] = tested on: Saccharomyces cerevisiae yeast, wild type strain D273-10B; experiment: Phototoxicity test in Saccharomyces cerevisiae yeast (in vitro); format: cell-based
Source text: The method applied was used by Freitas (Freitas, Z. M. F., I Ax, P. A., Dellamora-Ortiz, G. M., Santos, E. P., Gonçalves, J. C. S., S.T.P Pharma Sciences, 2000, 10 (3): 239-242) for the Saccharomyces cerevisiae yeast use, wild type strain D273-10B, at room temperature, which dense cell layer is not sensitive to the ultraviolet radiation among 320-390 nm (UVA), besides being innocuous.
The yeast growth was in a YPD medium, constituted by yeast extract (1%), peptone (2%), anhydrous glucose (2%), agar (2%). […] The studied substances were applied in 1 g % concentration in Wharman no. 1 sterile filter paper disks, and fixed on the surface of culture media plates. A S. cerevisiae suspension was prepared in sterilized water (10 mL). Aliquots of 0.2 mL were applied and spread in the culture plates using a glass loop. Two plates were prepared for each sample. After seeding and applying the samples, one plate was allowed to grow under two UVA lamps (320-390 nm). A control plate was grown in the dark. […]

## COc1c2occc2cc2ccc(=O)oc12 [8-methoxypsoralen]
[1]; 24 hours
  erythema degree: 1
[1]; 48 hours
  erythema degree: 2
[2]; 0.1 g % in ethanol, plates in the light and in the dark
  growth inhibition halo: presented growth inhibition halo in the light
[2]; irradiated plate and plate with light absence
  phototoxic answer in the in vitro phototoxicity test: non-phototoxic
